Measured values reported in patent publication US8247211B2, “Glycopeptide antibiotics” (American Cyanamid Company, priority 2001, dated 2012).

Tests used:
Assay in all cases: In vitro antibacterial evaluation: minimum inhibitory concentration (MIC), broth dilution method
Assay type in all cases: cell-based
Streptococcus sp. = test system: Streptococcus sp.
Procedure, shortened: (§1)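 Susceptibility determined by NCCLS-recommended broth dilution (M7-A2), Muller-Hinton II […]. Concentration span 64-0.06 μg/mL, inoculum 5×10^5 CFU/mL. Isolates include strains resistant to methicillin, penicillin and/or vancomycin.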

Enterococcus sp. = test system: Enterococcus sp.
Procedure, shortened: as §1

Staphylococcus sp. = conditions: broth dilution, 18 hours at 35° C.
Procedure, shortened: as §1

Escherichia coli = test system: Escherichia coli
Procedure, shortened: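 Using Muller-Hinton II […] and an inoculum of 5×10^5 CFU/mL, antibiotic dilutions from 64 down to 0.06 μg/mL were tested following NCCLS M7-A2. The MIC is the lowest concentration inhibiting growth, including in methicillin-, penicillin- or vancomycin-resistant clinical isolates.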

CCOc1cc(C2OCC3OC(OC4C(CO)OC(Oc5ccc(CC6NC(=O)C(C(C)c7ccccc7)NC(=O)CNC(=O)C(CO)NC(=O)C(C(O)C7CNC(=N)N7C7OC(CO)C(O)C(O)C7O)NC(=O)C(C(O)C7CNC(=N)N7)NC6=O)cc5)C(O)C4O)C(O)C(O)C3O2)ccc1OC (stereo not drawn) [Example 152, Cyclo[glycyl-β-methylphenylalanyl-O-[4-O-[4,6-O-(3-ethoxy-4-methoxybenzylidene)hexopyranosyl)hexopyranosyl]tyrosyl-3-(2-iminoimidazolidin-4-yl)seryl-3-(3-hexopyranosyl-2-iminoimidazolidin-4-yl)serylseryl]]
>64 µg/mL: MIC Escherichia coli (ATCC 25922) (Escherichia coli; strain ATCC 25922) | MIC Escherichia coli (GC 4559) (Escherichia coli; strain GC 4559)
16 µg/mL: MIC Enterococcus faecium (GC 4557) (Enterococcus sp.; strain GC 4557) | MIC Coagulase Negative Staphylococcus (GC 4551) (Staphylococcus sp.; 5×10^5 CFU/mL) | MIC Staphylococcus aureus (ATCC 29213) (Staphylococcus sp.; 5×10^5 CFU/mL) | MIC Staphylococcus aureus (GC 1131) (Staphylococcus sp.; 5×10^5 CFU/mL) | MIC Staphylococcus aureus (GC 3051) (Staphylococcus sp.; 5×10^5 CFU/mL) | MIC Staphylococcus aureus (GC 4541) (Staphylococcus sp.; 5×10^5 CFU/mL) | MIC Staphylococcus aureus (GC 4542) (Staphylococcus sp.; 5×10^5 CFU/mL) | MIC Staphylococcus aureus (GC 4544) (Staphylococcus sp.; 5×10^5 CFU/mL) | MIC Staphylococcus aureus (ATCC 29213) (Staphylococcus sp.; strain ATCC 29213) | MIC Staphylococcus aureus (GC 1131) (Staphylococcus sp.; strain GC 1131) | MIC Staphylococcus aureus (GC 3051) (Staphylococcus sp.; strain GC 3051) | MIC Staphylococcus aureus (GC 4541) (Staphylococcus sp.; strain GC 4541) | MIC Staphylococcus aureus (GC 4542) (Staphylococcus sp.; strain GC 4542) | MIC Staphylococcus aureus (GC 4544) (Staphylococcus sp.; strain GC 4544) | MIC Coagulase Negative Staphylococcus (GC 4551) (Staphylococcus sp.; strain GC 4551)
4 µg/mL: MIC Streptococcus pyogenes (GC 4563) (Streptococcus sp.; strain GC 4563)
64 µg/mL: MIC Enterococcus faecalis (GC 4553) (Enterococcus sp.; strain GC 4553)
2 µg/mL: MIC Streptococcus pneumoniae (ATCC 6301) (Streptococcus sp.; strain ATCC 6301) | MIC Streptococcus pneumoniae (GC 4565) (Streptococcus sp.; strain GC 4565)
32 µg/mL: MIC Enterococcus faecalis (ATCC 29212) (Enterococcus sp.; strain ATCC 29212) | MIC Enterococcus faecalis (GC 2242) (Enterococcus sp.; strain GC 2242) | MIC Enterococcus faecium (GC 2243) (Enterococcus sp.; strain GC 2243) | MIC Enterococcus faecalis (GC 2691) (Enterococcus sp.; strain GC 2691) | MIC Enterococcus faecalis (GC 3059) (Enterococcus sp.; strain GC 3059) | MIC Enterococcus faecalis (GC 4552) (Enterococcus sp.; strain GC 4552) | MIC Enterococcus faecalis (GC 4554) (Enterococcus sp.; strain GC 4554) | MIC Enterococcus faecium (GC 4556) (Enterococcus sp.; strain GC 4556) | MIC Enterococcus avium (GC 4558) (Enterococcus sp.; strain GC 4558) | MIC Enterococcus faecalis (GC 6189) (Enterococcus sp.; strain GC 6189) | MIC Staphylococcus aureus (GC 3053) (Staphylococcus sp.; 5×10^5 CFU/mL) | MIC Staphylococcus aureus (GC 3053) (Staphylococcus sp.; strain GC 3053)
0.5 µg/mL: MIC Streptococcus pneumoniae (GC 1894) (Streptococcus sp.; strain GC 1894)
8 µg/mL: MIC Streptococcus agalactiae (GC 4564) (Streptococcus sp.; strain GC 4564) | MIC Coagulase Negative Staphylococcus (GC 4547) (Staphylococcus sp.; 5×10^5 CFU/mL) | MIC Coagulase Negative Staphylococcus (GC 4548) (Staphylococcus sp.; 5×10^5 CFU/mL) | MIC Coagulase Negative Staphylococcus (GC 4549) (Staphylococcus sp.; 5×10^5 CFU/mL) | MIC Coagulase Negative Staphylococcus (GC 6257) (Staphylococcus sp.; 5×10^5 CFU/mL) | MIC Staphylococcus aureus (GC 4545) (Staphylococcus sp.; 5×10^5 CFU/mL) | MIC Staphylococcus aureus-SMITH (GC 4543) (Staphylococcus sp.; 5×10^5 CFU/mL) | MIC Staphylococcus haemolyticus (GC 4546) (Staphylococcus sp.; 5×10^5 CFU/mL) | MIC Staphylococcus aureus-SMITH (GC 4543) (Staphylococcus sp.; strain GC 4543) | MIC Staphylococcus aureus (GC 4545) (Staphylococcus sp.; strain GC 4545) | MIC Staphylococcus haemolyticus (GC 4546) (Staphylococcus sp.; strain GC 4546) | MIC Coagulase Negative Staphylococcus (GC 4547) (Staphylococcus sp.; strain GC 4547) | MIC Coagulase Negative Staphylococcus (GC 4548) (Staphylococcus sp.; strain GC 4548) | MIC Coagulase Negative Staphylococcus (GC 4549) (Staphylococcus sp.; strain GC 4549) | MIC Coagulase Negative Staphylococcus (GC 6257) (Staphylococcus sp.; strain GC 6257) | MIC Escherichi coli (GC 4560) (Escherichia coli; strain GC 4560)
